Source: the NIST ThermoML archive (doi:10.1016/j.tca.2006.08.007)

Assay: excess molar enthalpy (molar enthalpy of mixing); xn = mol fraction of the nth substance listed
Settings: 101 kPa, Liquid, Isoperibol calorimetry

CCCCCCO [hexan-1-ol] + CC#N
Settings	excess molar enthalpy [kcal/mol]
288.15 K, x1 = 0.0402	0.105
288.15 K, x1 = 0.0809	0.188
288.15 K, x1 = 0.1219	0.2555
288.15 K, x1 = 0.1629	0.3074
288.15 K, x1 = 0.2038	0.3499
288.15 K, x1 = 0.2445	0.386
288.15 K, x1 = 0.2846	0.4183
288.15 K, x1 = 0.3241	0.4434
288.15 K, x1 = 0.3628	0.4663
288.15 K, x1 = 0.4145	0.4969
288.15 K, x1 = 0.4465	0.5029
288.15 K, x1 = 0.4819	0.5
288.15 K, x1 = 0.5214	0.4912
288.15 K, x1 = 0.5657	0.4775
288.15 K, x1 = 0.6156	0.4565
288.15 K, x1 = 0.6722	0.425
288.15 K, x1 = 0.7368	0.3812
288.15 K, x1 = 0.8114	0.3083
288.15 K, x1 = 0.898	0.191
298.15 K, x1 = 0.0405	0.121
298.15 K, x1 = 0.0815	0.2278
298.15 K, x1 = 0.1226	0.3093
298.15 K, x1 = 0.1639	0.3812
298.15 K, x1 = 0.205	0.4328
298.15 K, x1 = 0.2457	0.4742
298.15 K, x1 = 0.286	0.5062
298.15 K, x1 = 0.3257	0.5239
298.15 K, x1 = 0.3849	0.5428
298.15 K, x1 = 0.4227	0.554
298.15 K, x1 = 0.4554	0.5566
298.15 K, x1 = 0.4916	0.5557
298.15 K, x1 = 0.5321	0.5492
298.15 K, x1 = 0.5774	0.5359
298.15 K, x1 = 0.6286	0.5057
298.15 K, x1 = 0.6866	0.4701
298.15 K, x1 = 0.753	0.4089
298.15 K, x1 = 0.8295	0.309
298.15 K, x1 = 0.9187	0.165
298.15 K, x1 = 0.958	0.0932
313.15 K, x1 = 0.0408	0.132
313.15 K, x1 = 0.0819	0.238
313.15 K, x1 = 0.1233	0.3184
313.15 K, x1 = 0.1648	0.3815
313.15 K, x1 = 0.206	0.4398
313.15 K, x1 = 0.247	0.4861
313.15 K, x1 = 0.2874	0.5151
313.15 K, x1 = 0.3271	0.5387
313.15 K, x1 = 0.3888	0.5705
313.15 K, x1 = 0.4178	0.5782
313.15 K, x1 = 0.4498	0.5834
313.15 K, x1 = 0.4853	0.5841
313.15 K, x1 = 0.5248	0.5772
313.15 K, x1 = 0.569	0.5595
313.15 K, x1 = 0.6188	0.5311
313.15 K, x1 = 0.6752	0.4883
313.15 K, x1 = 0.7395	0.435
313.15 K, x1 = 0.8134	0.3535
313.15 K, x1 = 0.8993	0.2239
323.15 K, x1 = 0.041	0.136
323.15 K, x1 = 0.0823	0.2452
323.15 K, x1 = 0.1239	0.3296
323.15 K, x1 = 0.1655	0.4001
323.15 K, x1 = 0.2069	0.4541
323.15 K, x1 = 0.2479	0.505
323.15 K, x1 = 0.2884	0.5461
323.15 K, x1 = 0.3282	0.575
323.15 K, x1 = 0.39	0.626
323.15 K, x1 = 0.419	0.6384
323.15 K, x1 = 0.451	0.6417
323.15 K, x1 = 0.4865	0.6353
323.15 K, x1 = 0.526	0.6231
323.15 K, x1 = 0.5702	0.6001
323.15 K, x1 = 0.6199	0.5698
323.15 K, x1 = 0.6762	0.5206
323.15 K, x1 = 0.7404	0.4529
323.15 K, x1 = 0.8142	0.3561
323.15 K, x1 = 0.8997	0.223

CCCCCO [pentan-1-ol] + CC#N
Settings	excess molar enthalpy [kcal/mol]
288.15 K, x1 = 0.0461	0.107
288.15 K, x1 = 0.0922	0.1965
288.15 K, x1 = 0.1379	0.2691
288.15 K, x1 = 0.1833	0.3207
288.15 K, x1 = 0.2279	0.364
288.15 K, x1 = 0.2717	0.3903
288.15 K, x1 = 0.3144	0.4302
288.15 K, x1 = 0.356	0.446
288.15 K, x1 = 0.3963	0.4555
288.15 K, x1 = 0.4494	0.4615
288.15 K, x1 = 0.4818	0.4632
288.15 K, x1 = 0.5174	0.462
288.15 K, x1 = 0.5567	0.4548
288.15 K, x1 = 0.6002	0.4412
288.15 K, x1 = 0.6486	0.4187
288.15 K, x1 = 0.7027	0.3879
288.15 K, x1 = 0.7635	0.3396
288.15 K, x1 = 0.8322	0.2734
288.15 K, x1 = 0.9103	0.162
298.15 K, x1 = 0.0464	0.121
298.15 K, x1 = 0.0927	0.2151
298.15 K, x1 = 0.1386	0.2909
298.15 K, x1 = 0.1841	0.3511
298.15 K, x1 = 0.2289	0.3958
298.15 K, x1 = 0.2728	0.4293
298.15 K, x1 = 0.3157	0.4534
298.15 K, x1 = 0.3574	0.4699
298.15 K, x1 = 0.4188	0.4794
298.15 K, x1 = 0.4833	0.4821
298.15 K, x1 = 0.5189	0.4773
298.15 K, x1 = 0.5582	0.4663
298.15 K, x1 = 0.6016	0.45
298.15 K, x1 = 0.65	0.4302
298.15 K, x1 = 0.7039	0.3977
298.15 K, x1 = 0.7645	0.3468
298.15 K, x1 = 0.833	0.2758
298.15 K, x1 = 0.9108	0.1673
313.15 K, x1 = 0.0467	0.125
313.15 K, x1 = 0.0933	0.2268
313.15 K, x1 = 0.1395	0.3064
313.15 K, x1 = 0.1852	0.3662
313.15 K, x1 = 0.2302	0.4109
313.15 K, x1 = 0.2742	0.4455
313.15 K, x1 = 0.3172	0.4708
313.15 K, x1 = 0.359	0.4897
313.15 K, x1 = 0.4229	0.5093
313.15 K, x1 = 0.4526	0.5127
313.15 K, x1 = 0.485	0.5141
313.15 K, x1 = 0.5207	0.5076
313.15 K, x1 = 0.5599	0.4957
313.15 K, x1 = 0.6033	0.4783
313.15 K, x1 = 0.6516	0.4548
313.15 K, x1 = 0.7054	0.4202
313.15 K, x1 = 0.7658	0.3728
313.15 K, x1 = 0.834	0.2966
313.15 K, x1 = 0.9114	0.185
323.15 K, x1 = 0.0469	0.127
323.15 K, x1 = 0.0937	0.233
323.15 K, x1 = 0.1401	0.3143
323.15 K, x1 = 0.1859	0.3721
323.15 K, x1 = 0.231	0.4204
323.15 K, x1 = 0.2752	0.4579
323.15 K, x1 = 0.3183	0.483
323.15 K, x1 = 0.3601	0.5098
323.15 K, x1 = 0.4006	0.5244
323.15 K, x1 = 0.4538	0.5509
323.15 K, x1 = 0.4863	0.5562
323.15 K, x1 = 0.5219	0.5504
323.15 K, x1 = 0.5611	0.5361
323.15 K, x1 = 0.6045	0.5122
323.15 K, x1 = 0.6527	0.4897
323.15 K, x1 = 0.7064	0.4529
323.15 K, x1 = 0.7667	0.4101
323.15 K, x1 = 0.8346	0.3351
323.15 K, x1 = 0.9118	0.2165
